Measured values reported in article PMC6152655, “Determination and Pharmacokinetic Study of Three Diterpenes in Rat Plasma by UHPLC-ESI-MS/MS after Oral Administration of Rosmarinus officinalis L. Extract” (Molecules : A Journal of Synthetic Chemistry and Natural …, 2017).
Read-outs that look alike come from different tables or passages of the source.

How the values were obtained:
[1] = design: method as in PMID 19309757; conditions: rat, monomeric compound (purity ≥ 98%) instead of extract; cited from earlier work
[2] = Pharmacokinetic study in rats after oral administration of R. officinalis extract (UHPLC-ESI-MS/MS of plasma); format: in vivo, Sprague-Dawley (SD) rats; design: Cmax: unit: ng/mL; conditions: for Cmax / AUC(0-inf) / AUC(0-t) / Tmax / half-life: rat plasma, n = 6; for concentration at 0.5 h: plasma sample obtained at 0.5 h from a rat after oral administration of rosemary extract (Figure 2C)
Description: The validated method was successfully applied to pharmacokinetic studies of three diterpenes components after oral administration of rosemary at three different doses (0.25, 0.82, 2.45 g/kg). […] Therefore, we set low, medium and high doses in this study.
The main pharmacokinetic parameters of the analytes were calculated with DAS 2.0 (Shanghai, China) by non-compartmental analysis.
For the preparation of the extract, 100 g of dried leaves of R. officinalis were extracted under reflux with 1 L ethanol-water (80:20, v/v) for three times, 1 h for each time, and then filtrated. The combined filtrate was evaporated to dryness, and the residue was dissolved in water to get a concentration equivalent to 0.1 g/mL of the R. officinalis extract.
Male Sprague-Dawley (SD) rats (body weight 220 ± 50 g) were purchased and adapted under 65% RH, 23–27°C. […] Eighteen rats were randomly divided into low (0.24 g/kg), medium (0.82 g/kg), high (2.45 g/kg) dose groups. The SD rats were fasted for 12 h before experiment, had free access to water even during the experiment. The blood (0.25 mL) was collected from the orbital venous plexus at 0.08, 0.25, 0.50, 1, 1.5, 2, 3, 4, 6, 8, 12 and 24 h after oral administration of R. officinalis extract. The plasma was immediately acquired by centrifugation at 4 °C and stored frozen at −20 °C until analysis.
Before the experiment, the plasma samples stored in −20 °C were thawed naturally at room temperature. Using the optimized method, 50 μL of I.S. (2120 ng/mL), 100 μL of methanol and 100 μL of 1 mol/L HCl were added to 100 μL of plasma sample followed with vortex-mixed for 30 s. The mixed sample was extracted with 3 mL of ethyl acetate by being vortex-mixed for 1 min. The upper organic layer was removed and evaporated to dryness under a stream of nitrogen at 40 °C after centrifuging at 3800 rpm for 5 min. The residue was reconstituted with 100 μL of acetonitrile-water (40:60, v/v), and then vortex-mixed for 2 min and filtered by a 0.22 μm membrane. 10 μL of the subsequent filtrate were injected into the UHPLC-ESI-MS/MS system [20].
The maximum plasma concentration (Cmax) and the time of maximum plasma concentration (tmax) were observed directly from the measured data. The elimination rate constant (Ke) was calculated by linear regression of the terminal points in a semi-log plot of the plasma concentration against time. The elimination half-life (t1/2) was calculated using the formula t1/2 = 0.693/Ke. The area under plasma concentration-time curve (AUC0→t) to the last measurable plasma concentration (Ct) was estimated by using the linear trapezoidal rule. The area under the plasma concentration-time curve to time infinity (AUC0→∞) was calculated as AUC0→∞ = AUC0→t + Ct/Ke. Pharmacokinetic parameters of the analytes were calculated with DAS 2.0 (Shanghai, China) by non-compartmental analysis.

[3] = Stability of the three diterpenes in rat plasma under different storage conditions; format: in vitro ADME; conditions: n = 6; for Stability (% RE) Post-Preparative: extracted samples, 12 h at 4 °C; for Stability (% RE) Long-Term / Stability (% RE) Short-Term / Stability (% RE) Freeze-Thaw: rat plasma; for Stability (% RE) Long-Term: 2 weeks at −20 °C; for Stability (% RE) Short-Term: room temperature 4 h; for Stability (% RE) Freeze-Thaw: three freeze (−20 °C)-thaw cycles
Description: The stability of the three diterpenes was assessed under various conditions (Table 4). […] Moreover, all the investigated compounds were stable for 2 weeks when kept frozen at −20 °C. The stability including cycles of freeze-thaw stability (three freeze at −20 °C and thaw cycles), room temperature stability (storage for 4 h at ambient temperature), long-term stability (storage for 2 weeks at −20 °C), post-preparation stability (storage for 12 h after sample preparation at 4 °C) were tested at LQC, MQC, HQC levels with six replicates at each level. The results were compared with those for freshly prepared QC samples and the percentage concentration deviation was calculated. The accuracy should be within ± 15% in freshly prepared samples. All the testing QC samples of stability were determined by using the calibration curve of freshly prepared standard samples.

[4] = male, Sprague-Dawley, rat, plasma, po, 0.24 g/kg, oral R. officinalis extract 0.24 g/kg (low dose), read-out: Cmax
[5] = male, Sprague-Dawley, rat, plasma, po, 0.82 g/kg, oral R. officinalis extract 0.82 g/kg (medium dose), read-out: Cmax
[6] = male, Sprague-Dawley, rat, plasma, po, 2.45 g/kg, oral R. officinalis extract 2.45 g/kg (high dose), read-out: Cmax
[7] = male, Sprague-Dawley, oral R. officinalis extract 0.24 g/kg (low dose)
[8] = male, Sprague-Dawley, oral R. officinalis extract 0.82 g/kg (medium dose)
[9] = male, Sprague-Dawley, oral R. officinalis extract 2.45 g/kg (high dose)
[10] = high QC (25,800/3488/4080 ng/mL)
[11] = low QC (21.50/2.910/3.400 ng/mL)
[12] = medium QC (1075/145.3/170.0 ng/mL)
[13] = low QC (21.50/2.910/3.400 ng/mL carnosic acid/carnosol/rosmanol)

Row | SMILES | Cmax [2, 4] | Cmax [2, 5] | Cmax [2, 6] | concentration at 0.5 h ([2]; male, Sprague-Dawley) | AUC(0-inf) [2, 7] | AUC(0-t) [2, 7] | Tmax [2, 7] | half-life [2, 7] | AUC(0-inf) [2, 8] | AUC(0-t) [2, 8] | Tmax [2, 8] | half-life [2, 8] | AUC(0-inf) [2, 9] | AUC(0-t) [2, 9] | Tmax [2, 9] | half-life [2, 9] | Stability (% RE) Post-Preparative [3, 10] | Stability (% RE) Post-Preparative [3, 11] | Stability (% RE) Post-Preparative [3, 12] | Stability (% RE) Long-Term [3, 10] | further results
1 | CC(C)c1cc2c(c(O)c1O)[C@@]1(C(=O)O)CCCC(C)(C)[C@@H]1CC2 [Carnosic acid] | 1210 ± 344 ng/mL | 3960 ± 516 ng/mL | 27500 ng/mL | 27900 ng/mL | 14900 ng·h/mL | 9140 ± 1500 ng·h/mL | 0.3 ± 0.11 h | 8.02 ± 2.08 h | 40000 ng·h/mL | 28500 ng·h/mL | 0.3 ± 0.11 h | 12.8 ± 5.14 h | 181000 ng·h/mL | 146000 ng·h/mL | 0.5 ± 0.31 h | 12.8 ± 1.23 h | 14.83 % RE | 13.89 % RE | 14.10 % RE | 14.84 % RE | Tmax [1]: 2.17 h; Stability (% RE) Long-Term [3, 11]: 13.78 % RE; Stability (% RE) Long-Term [3, 12]: 14.30 % RE; Stability (% RE) Short-Term [3, 10]: 14.84 % RE; Stability (% RE) Short-Term [3, 11]: 10.21 % RE; Stability (% RE) Short-Term [3, 12]: 14.80 % RE; Stability (% RE) Freeze-Thaw [3, 10]: 14.40 % RE; Stability (% RE) Freeze-Thaw [3, 13]: 14.04 % RE; Stability (% RE) Freeze-Thaw [3, 12]: 14.82 % RE
2 | CC(C)c1cc2c(c(O)c1O)[C@@]13CCCC(C)(C)[C@@H]1C[C@@H]2OC3=O [Carnosol] | 217 ± 53.1 ng/mL | 413 ± 42.6 ng/mL | 1480 ± 266 ng/mL | 1830 ng/mL | 1820 ± 327 ng·h/mL | 1470 ± 190 ng·h/mL | 0.4 ± 0.13 h | 12.3 ± 2.36 h | 7360 ± 2740 ng·h/mL | 3190 ± 316 ng·h/mL | 0.27 ± 0.15 h | 13.9 ± 6.95 h | 17400 ng·h/mL | 14000 ng·h/mL | 0.7 ± 0.45 h | 12.8 ± 3.15 h | 2.09 % RE | 2.32 % RE | 0.66 % RE | −0.48 % RE | Cmax ([2]; oral R. officinalis extract 0.24 g/kg (low dose)): 216.56 ± 53.09 ng/mL; Cmax ([2]; oral R. officinalis extract 0.82 g/kg (medium dose)): 413.34 ± 42.59 ng/mL; Stability (% RE) Long-Term [3, 11]: 3.10 % RE; Stability (% RE) Long-Term [3, 12]: 14.49 % RE; Stability (% RE) Short-Term [3, 10]: −0.79 % RE; Stability (% RE) Short-Term [3, 11]: 8.07 % RE; Stability (% RE) Short-Term [3, 12]: −8.67 % RE; Stability (% RE) Freeze-Thaw [3, 10]: 0.30 % RE; Stability (% RE) Freeze-Thaw [3, 13]: 5.39 % RE; Stability (% RE) Freeze-Thaw [3, 12]: 8.40 % RE
3 | CC(C)c1cc2c(c(O)c1O)[C@@]13CCCC(C)(C)[C@@H]1[C@H](OC3=O)[C@H]2O [Rosmanol] | 77.2 ± 10.5 ng/mL | 188 ± 75.9 ng/mL | 633 ± 118 ng/mL | 568 ng/mL | 552 ± 130 ng·h/mL | 460 ± 54.9 ng·h/mL | 0.25 h | 8.88 ± 3.52 h | 826 ± 138 ng·h/mL | 678 ± 56.9 ng·h/mL | 0.2 ± 0.18 h | 9.75 ± 2.44 h | 7980 ± 1650 ng·h/mL | 5370 ± 927 ng·h/mL | 0.55 ± 0.27 h | 15.4 ± 3.54 h | 4.60 % RE | −0.30 % RE | −7.65 % RE | 9.17 % RE | Cmax ([2]; oral R. officinalis extract 2.45 g/kg (high dose)): 633.41 ± 118.52 ng/mL; Stability (% RE) Long-Term [3, 11]: 7.17 % RE; Stability (% RE) Long-Term [3, 12]: −8.56 % RE; Stability (% RE) Short-Term [3, 10]: 0.65 % RE; Stability (% RE) Short-Term [3, 11]: 5.01 % RE; Stability (% RE) Short-Term [3, 12]: −8.16 % RE; Stability (% RE) Freeze-Thaw [3, 10]: −0.07 % RE; Stability (% RE) Freeze-Thaw [3, 13]: 4.65 % RE; Stability (% RE) Freeze-Thaw [3, 12]: −7.12 % RE
